This is an account of results in patent US8852619B2, “Compositions of dibromomalonamide and their use as biocides” (Dow Global Technologies LLC, priority 2009, dated 2014).

Like-named read-outs stand apart in the source and are kept apart here.

The conditions of data set [1]: cited from earlier work.
The test system of data set [2] is consortium of bacteria: mixture of Pseudomonas aeruginosa, Klebsiella pneumoniae, Staphylococcus aureus, and Bacillus subtilis. Put plainly: Growth inhibition assay (microtiter plate-based synergy assay). The class given is cell-based. To be noted: used alone, 24 hr. The method, then: (§1) The assay of this Example measures the efficacy of the biocides at preventing growth of a consortium of bacteria in a dilute mineral salts medium. The medium contains (in mg/l) the following components: FeCl3.6H2O (1); CaCl2.2H2O (10); MgSO4.7H2O (22.5); (NH4)2SO4 (40); KH2PO4 (10); K2HPO4 (25.5); Yeast Extract (10); and glucose (100). After all components are added to deionized water, the pH of the medium is adjusted to 7.5. Following filter sterilization, aliquots are dispensed in […] quantities to sterile microtiter plate wells. Dilutions of 2,2-dibromomalonamide (“DBMAL”) and/or “Biocide B” are then added to the microtiter plate. After preparing the combinations of actives as illustrated below, each well is inoculated with 100 μl of a cell suspension containing ca. 1×10^6 cells per milliliter of a mixture of Pseudomonas aeruginosa, Klebsiella pneumoniae, Staphylococcus aureus, and Bacillus subtilis. The final total volume of medium in each well is 300 μl. Once prepared as described herein, the concentration of each active ranges from 25 ppm to 0.195 ppm as illustrated in Table 1. The resulting matrix allows testing of eight concentrations of each active and 64 combinations of actives at varying ratios.
(§2) Controls (not shown) contain the medium with no biocide added. Immediately after the microtiter plates are prepared, the optical density (OD) readings for each well are measured at 600 nm and the plates are then incubated at 37° C. for 24 hr. After the incubation period, the plates are gently agitated before OD values are collected. The OD values at t(0) are subtracted from t(24) values to determine the total amount of growth (or lack thereof) that occurs. These values are used to calculate the percent inhibition of growth caused by the presence of each biocide and each of the 64 combinations.
(§3) where • MDBMAL: Concentration of DBMAL required to inhibit ˜90% of bacterial growth when used in combination with DBNPA. • CDBMAL: Concentration of DBMAL required to inhibit ˜90% of bacterial growth when used alone. • MDBNPA: Concentration of DBNPA required to inhibit ˜90% of bacterial growth when used in combination with DBMAL. • CDBNPA: Concentration of DBNPA required to inhibit ˜90% of bacterial growth when used alone. The SI values are interpreted as follows: • SI<1: Synergistic combination • SI=1: Additive combination • SI>1: Antagonistic combination
(§4) In the Example, the amounts of biocides in the solution are measured in mg per liter of solution (mg/l). Since solution densities are approximately 1.00, the mg/l measurement corresponds to weight ppm. Both units may therefore be used interchangeably in the Examples.

Assay in data set [3]: as above
The format is cell-based. The following applies: 24 hr, read-out: Percent inhibition of growth; for inhibition at 0.2 ppm: 0.20 ppm; for inhibition at 12.5 ppm: 12.50 ppm. As to the method: as §1, §2, §3, §4

Take `N#CC(Br)(Br)C(N)=O` [DBNPA, 2,2-dibromo-3-nitrilopropionamide]: the “factor of increase of rate of disappearance” value in data set [1] (going from pH 6 to pH 8.9) is recorded as “about 450”. Besides, the “half life (hydrolytic degradation)” value in data set [1] (pH 8) was 2 h. Also, the “half life (hydrolytic degradation)” value in data set [1] (pH 11.3) is 0.00694 h. For the same molecule, the “Minimum concentration that caused ~90% inhibition of growth (CDBNPA)” value in data set [2] was 3.13 mg/L. Moreover, in data set [3] (DBNPA alone), the inhibition at 0.2 ppm turned out to be 0%, the inhibition at 1.56 ppm is 75%, the inhibition at 6.25 ppm amounted to 82% and the inhibition at 12.5 ppm was determined as 88%. Also, the inhibition at 25 ppm in data set [3] (DBNPA alone) was found to be 96%. In addition, the inhibition at 0.39 ppm in data set [3] (DBNPA alone, 0.39 ppm) was 0%. In data set [3] (DBNPA alone, 0.78 ppm), the inhibition at 0.78 ppm came out at 0%. Also, in data set [3] (DBNPA alone, 3.13 ppm), the inhibition at 3.13 ppm was 98%.

For `NC(=O)C(Br)(Br)C(N)=O` [DBMAL, 2,2-dibromomalonamide], in data set [3] (DBMAL alone), the inhibition at 0.2 ppm was 0%, the inhibition at 1.56 ppm was determined as 11%, the inhibition at 6.25 ppm was 38% and the inhibition at 12.5 ppm amounted to 92%. Also, in data set [3] (DBMAL alone), the inhibition at 25 ppm was found to be 96%.
